Experimental data: paper PMC5645246 (Anesthesiology, 2017)
Several values for one entry are separate records, joined by “and”; a condition that tells them apart may be missing. Identical values can stand only once. Entries after “also recorded” stand apart in the source; their conditions may differ. Like-named read-outs stand apart in the source and are kept apart here.

Tests used:
[1] = biological target: T1, α1β3γ2L GABAA receptors (Homo sapiens, UniProt P14867+P18507+P28472); assay type: cell-based
[2] = Aqueous saturation; assay type: physicochemical; settings: aqueous buffer
[3] = biological target: T1, α1β3γ2L GABAA receptors; settings: 300 μM naphthalene-etomidate; for Percent change in peak current amplitude, GABA EC5 + Etomidate: etomidate 3 μM; for Percent change in peak current amplitude, GABA EC5 + Pentobarbital: pentobarbital 120 μM; for Percent change in peak current amplitude, GABA EC5 + Propofol: propofol 10 μM
[4] = biological target: T1, α1β3γ2L GABAA receptors; assay type: cell-based; remark: listed apart in the source
[5] = biological target: α1β3γ2L GABAA receptors (α+−β− and γ+−β− transmembrane anesthetic sites) (Homo sapiens, UniProt P14867+P18507+P28472); test: Inhibition of receptor photoaffinity labeling by R-[3H]mTFD-MPAB; settings: for slope for inhibition of R-[3H]mTFD-MPAB photoincorporation: fit to equation 2
[6] = biological target: α1β3γ2L GABAA receptors (β+−α− transmembrane anesthetic sites) (Homo sapiens, UniProt P14867+P18507+P28472); test: Inhibition of receptor photoaffinity labeling by [3H]azi-etomidate; settings: for slope for inhibition of [3H]azi-etomidate photoincorporation: fit to equation 2
[7] = biological target: α1β3γ2L GABAA receptor open and closed states (Homo sapiens, UniProt P14867+P18507+P28472); test: Allosteric modeling of direct activation data; assay type: cell-based
[8] = biological target: T1, α1β3γ2L GABAA receptors; assay type: cell-based; settings: for EC5 GABA-evoked currents in the presence of drug, as % of those evoked by 1 mM GABA: 300 μM drug, mean ± SD; for maximum peak current amplitude at high drug concentrations, relative to that produced by 1 mM GABA: EC5 GABA; for maximum peak current amplitude at high drug concentrations, relative to that produced by 1 mM GABA / slope of potentiation concentration-response curve: fit to equation 1
[9] = tested on: GABAA receptor transmembrane anesthetic binding sites; settings: photolabel protection studies; cited from earlier work
[10] = GABA Pre-exposure, mean ± SD, n = 6
[11] = Naphthalene-etomidate Pre-exposure (10 s), mean ± SD, n = 6
[12] = Simultaneous Addition, mean ± SD, n = 6
[13] = EC5 GABA + 10 μM propofol, fit to equation 2
[14] = listed as Naphthalene-etomidate
[15] = absence of naphthalene-etomidate
[16] = presence of 300 μM naphthalene-etomidate

Chain of α1β3γ2L GABAA receptors (α+−β− and γ+−β− transmembrane anesthetic sites) (P14867 28-456): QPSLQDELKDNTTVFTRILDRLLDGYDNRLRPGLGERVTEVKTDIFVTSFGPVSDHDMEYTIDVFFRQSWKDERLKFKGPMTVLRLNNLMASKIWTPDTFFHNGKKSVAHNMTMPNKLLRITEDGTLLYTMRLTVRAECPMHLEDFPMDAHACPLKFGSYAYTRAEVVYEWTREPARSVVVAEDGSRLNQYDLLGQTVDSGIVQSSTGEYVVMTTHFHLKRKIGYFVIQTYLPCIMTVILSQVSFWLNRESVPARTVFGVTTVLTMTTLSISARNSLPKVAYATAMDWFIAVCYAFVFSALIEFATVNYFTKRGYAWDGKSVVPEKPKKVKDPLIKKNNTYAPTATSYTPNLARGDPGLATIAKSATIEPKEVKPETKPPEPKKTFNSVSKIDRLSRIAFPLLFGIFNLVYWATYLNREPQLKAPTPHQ
Chain of α1β3γ2L GABAA receptors (α+−β− and γ+−β− transmembrane anesthetic sites) (P28472 26-473): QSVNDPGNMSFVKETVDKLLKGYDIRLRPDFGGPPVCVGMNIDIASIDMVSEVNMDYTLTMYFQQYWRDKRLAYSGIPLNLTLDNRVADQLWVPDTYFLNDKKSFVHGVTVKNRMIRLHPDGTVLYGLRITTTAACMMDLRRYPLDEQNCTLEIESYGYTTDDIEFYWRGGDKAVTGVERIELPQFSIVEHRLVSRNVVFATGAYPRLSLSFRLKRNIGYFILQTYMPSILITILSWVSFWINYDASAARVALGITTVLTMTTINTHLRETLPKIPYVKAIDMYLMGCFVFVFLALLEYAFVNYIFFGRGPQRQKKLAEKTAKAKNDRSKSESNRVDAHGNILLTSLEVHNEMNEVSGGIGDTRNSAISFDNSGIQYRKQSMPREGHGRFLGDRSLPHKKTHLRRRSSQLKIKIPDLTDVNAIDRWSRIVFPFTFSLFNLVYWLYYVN
Chain of α1β3γ2L GABAA receptors (α+−β− and γ+−β− transmembrane anesthetic sites) (P18507 40-475): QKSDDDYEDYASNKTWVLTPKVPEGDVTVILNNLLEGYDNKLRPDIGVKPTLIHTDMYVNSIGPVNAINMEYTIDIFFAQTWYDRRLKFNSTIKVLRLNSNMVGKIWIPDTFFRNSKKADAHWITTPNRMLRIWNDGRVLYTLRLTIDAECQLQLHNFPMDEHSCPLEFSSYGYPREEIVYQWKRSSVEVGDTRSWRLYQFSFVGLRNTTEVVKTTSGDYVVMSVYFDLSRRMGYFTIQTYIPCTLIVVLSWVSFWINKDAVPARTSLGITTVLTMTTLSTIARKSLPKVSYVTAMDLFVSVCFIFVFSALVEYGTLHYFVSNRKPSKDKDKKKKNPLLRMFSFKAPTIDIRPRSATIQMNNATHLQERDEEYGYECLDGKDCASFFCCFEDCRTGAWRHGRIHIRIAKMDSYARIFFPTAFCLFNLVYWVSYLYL
Chain of α1β3γ2L GABAA receptors (β+−α− transmembrane anesthetic sites) (P14867 28-456): as the sequence (P14867 28-456) above
Chain of α1β3γ2L GABAA receptors (β+−α− transmembrane anesthetic sites) (P28472 26-473): as the sequence (P28472 26-473) above
Chain of α1β3γ2L GABAA receptors (β+−α− transmembrane anesthetic sites) (P18507 40-475): as the sequence (P18507 40-475) above
T1 sequence (P14867 28-456): as the sequence (P14867 28-456) above
T1 sequence (P28472 26-473): as the sequence (P28472 26-473) above
T1 sequence (P18507 40-475): as the sequence (P18507 40-475) above
Chain of α1β3γ2L GABAA receptor open and closed states (P14867 28-456): as the sequence (P14867 28-456) above
Chain of α1β3γ2L GABAA receptor open and closed states (P28472 26-473): as the sequence (P28472 26-473) above
Chain of α1β3γ2L GABAA receptor open and closed states (P18507 40-475): as the sequence (P18507 40-475) above

CCOC(=O)c1cncn1C(C)c1cccc2ccccc12 (stereo not shown) [naphthalene-etomidate]
directly activated currents compared with those activated by etomidate ([1]; same oocyte, no GABA): orders of magnitude smaller
near aqueous-saturating concentration [2]: ~300 µM
fold greater reduction in currents potentiated by propofol compared to currents potentiated by etomidate or pentobarbital [3]: approximately 2 fold
Percent change in peak current amplitude, GABA EC5 + Diazepam ([3]; GABA Pre-exposure, diazepam 1 μM, mean ± SD, n = 6): 33 ± 6.9%
Percent change in peak current amplitude, GABA EC5 + Etomidate [3, 10]: −24 ± 1.8%
Percent change in peak current amplitude, GABA EC50 [3, 10]: 21 ± 9%
Percent change in peak current amplitude, GABA EC5 + Pentobarbital [3, 10]: −21 ± 5.4%
Percent change in peak current amplitude, GABA EC5 + Propofol [3, 10]: −49 ± 4.69%
Percent change in peak current amplitude, GABA EC5 + Etomidate [3, 11]: −47 ± 4.1%
Percent change in peak current amplitude, GABA EC50 [3, 11]: −8.8 ± 8.6%
Percent change in peak current amplitude, GABA EC5 + Pentobarbital [3, 11]: −45 ± 7.9%
Percent change in peak current amplitude, GABA EC5 + Propofol [3, 11]: −68 ±6.0%
Percent change in peak current amplitude, GABA EC5 + Etomidate [3, 12]: −33 ± 7.8%
Percent change in peak current amplitude, GABA EC50 ([3]; Simultaneous Addition, mean ± SD, n = 6 oocytes): 7.3 ± 8.8%
Percent change in peak current amplitude, GABA EC5 + Pentobarbital [3, 12]: −33 ± 7.1%
Percent change in peak current amplitude, GABA EC5 + Propofol [3, 12]: −63 ± 7.3%
fold increase in EC50 for propofol potentiation of EC5 GABA-evoked currents ([4]; 300 μM naphthalene-etomidate): 6 fold
minimum normalized peak current at high naphthalene-etomidate concentrations [4, 13]: 24%
slope for inhibition of propofol-potentiated currents [4, 13]: −3.9
slope for inhibition of R-[3H]mTFD-MPAB photoincorporation [5]: −1.3
slope for inhibition of R-[3H]mTFD-MPAB photoincorporation [5, 14]: −2.0
inhibition of specific R-[3H]mTFD-MPAB photoincorporation ([5]; highest concentrations studied): ≥ 90%
slope for inhibition of [3H]azi-etomidate photoincorporation [6]: −2.0
slope for inhibition of [3H]azi-etomidate photoincorporation [6, 14]: −1.2
inhibition of specific [3H]azi-etomidate photoincorporation ([6]; highest concentrations studied): ≥ 90%
fold lower affinity for the open state of the receptor versus etomidate ([7]; comparison of dissociation constants): 27 fold
fold higher affinity for the open state than the closed state ([7]; from Kdopen and Kdclosed): 4.4 fold
EC5 GABA-evoked currents in the presence of drug, as % of those evoked by 1 mM GABA [8]: 11 ± 2.7% and 11%
maximum peak current amplitude at high drug concentrations, relative to that produced by 1 mM GABA [8]: 11%
slope of potentiation concentration-response curve [8]: 3

CCCC(C)C1(CC)C(=O)NC(=O)NC1=O (stereo not shown) [pentobarbital]
binding selectivity for β+–α− sites as compared to α+–β−/γ+–β− sites [9]: reverse selectivity

CCOC(=O)c1cncn1[C@H](C)c1ccccc1 [etomidate, reference compound]
slope of direct activation concentration-response curve ([1]; fit to equation 1): 1.2
fold potentiation of EC5 GABA-evoked current ([8]; 100 μM drug, representative traces, single oocyte): 14 fold
EC5 GABA-evoked currents in the presence of drug, as % of those evoked by 1 mM GABA [8]: 90 ± 7%
maximum peak current amplitude at high drug concentrations, relative to that produced by 1 mM GABA [8]: 95%
slope of potentiation concentration-response curve [8]: 1.2

CC(C)c1cccc(C(C)C)c1O [propofol]
peak current amplitude (normalized to 1 mM GABA) produced with EC5 GABA ([4]; 10 μM propofol, absence of naphthalene-etomidate): 61%
EC50 ([4]; EC50 for propofol potentiation of EC5 GABA-evoked currents, absence of naphthalene-etomidate, minimum constrained to 5%): 6 µM
maximal peak current response at high propofol concentrations [4, 15]: 88%
slope of propofol potentiation curve [4, 15]: 1.5
maximal peak current response at high propofol concentrations [4, 16]: 87%
slope of propofol potentiation curve [4, 16]: 1.0
binding selectivity for β+–α− sites as compared to α+–β−/γ+–β− sites [9]: essentially no selectivity at all; also recorded: virtually no binding site selectivity
